In ChEMBL document CHEMBL3991601, “The target landscape of clinical kinase drugs” (Science, 2017):
Activity calls are given as the source filed them. Rule as the data show it, for most assays here: actives have a measured Kd and inactives only a lower limit.

How the values were obtained:
[1] = target: T1, AarF domain-containing protein kinase 1 (Homo sapiens, UniProt Q86TW2)
T1 sequence (Q86TW2 whole entry): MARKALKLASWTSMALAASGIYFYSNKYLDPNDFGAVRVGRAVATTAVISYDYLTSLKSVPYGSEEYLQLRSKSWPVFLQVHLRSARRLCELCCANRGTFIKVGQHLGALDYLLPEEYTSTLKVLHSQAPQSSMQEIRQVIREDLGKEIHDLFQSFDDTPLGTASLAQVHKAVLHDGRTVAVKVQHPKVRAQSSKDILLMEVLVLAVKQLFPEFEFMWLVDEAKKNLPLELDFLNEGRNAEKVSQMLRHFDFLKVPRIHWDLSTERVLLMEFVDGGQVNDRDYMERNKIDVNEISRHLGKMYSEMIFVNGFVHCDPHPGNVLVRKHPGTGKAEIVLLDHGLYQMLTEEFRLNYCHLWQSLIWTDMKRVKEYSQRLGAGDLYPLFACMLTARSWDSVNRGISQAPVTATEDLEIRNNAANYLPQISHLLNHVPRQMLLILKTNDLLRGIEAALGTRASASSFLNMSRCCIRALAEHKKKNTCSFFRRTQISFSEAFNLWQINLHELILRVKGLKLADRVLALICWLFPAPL

[2] = target: Calcium/calmodulin-dependent protein kinase kinase 2 (Homo sapiens, UniProt Q96RR4)
[3] = target: Cyclin-dependent kinase 7 (Homo sapiens, UniProt P50613)
[4] = target: T2, Ferrochelatase, mitochondrial (Homo sapiens, UniProt P22830)
T2 sequence (P22830 whole entry): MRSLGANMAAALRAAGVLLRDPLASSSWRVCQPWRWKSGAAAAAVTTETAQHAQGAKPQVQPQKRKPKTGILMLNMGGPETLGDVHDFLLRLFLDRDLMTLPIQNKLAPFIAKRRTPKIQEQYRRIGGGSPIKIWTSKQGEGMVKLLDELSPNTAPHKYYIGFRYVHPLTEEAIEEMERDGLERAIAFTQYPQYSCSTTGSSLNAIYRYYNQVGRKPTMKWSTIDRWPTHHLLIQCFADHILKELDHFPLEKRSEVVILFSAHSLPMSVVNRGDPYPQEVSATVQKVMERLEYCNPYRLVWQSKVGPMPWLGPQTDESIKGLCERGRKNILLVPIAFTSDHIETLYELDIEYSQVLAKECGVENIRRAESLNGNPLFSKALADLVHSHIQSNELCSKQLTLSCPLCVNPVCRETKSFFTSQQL

[5] = target: T3, Dual specificity mitogen-activated protein kinase kinase 6 (Homo sapiens, UniProt P52564)
T3 sequence (P52564 whole entry): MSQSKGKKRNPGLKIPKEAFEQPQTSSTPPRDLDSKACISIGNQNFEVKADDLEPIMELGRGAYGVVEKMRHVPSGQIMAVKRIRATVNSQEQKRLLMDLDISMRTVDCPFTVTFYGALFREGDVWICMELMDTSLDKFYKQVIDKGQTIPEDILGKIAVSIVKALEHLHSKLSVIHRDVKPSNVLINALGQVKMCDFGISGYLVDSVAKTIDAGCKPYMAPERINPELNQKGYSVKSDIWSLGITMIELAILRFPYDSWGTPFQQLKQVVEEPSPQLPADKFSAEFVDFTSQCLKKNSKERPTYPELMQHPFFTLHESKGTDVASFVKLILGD

Midasin = Midasin (Homo sapiens, UniProt Q9NU22)
[6] = target: T4, Serine/threonine-protein kinase Nek2 (Homo sapiens, UniProt P51955)
T4 sequence (P51955 whole entry): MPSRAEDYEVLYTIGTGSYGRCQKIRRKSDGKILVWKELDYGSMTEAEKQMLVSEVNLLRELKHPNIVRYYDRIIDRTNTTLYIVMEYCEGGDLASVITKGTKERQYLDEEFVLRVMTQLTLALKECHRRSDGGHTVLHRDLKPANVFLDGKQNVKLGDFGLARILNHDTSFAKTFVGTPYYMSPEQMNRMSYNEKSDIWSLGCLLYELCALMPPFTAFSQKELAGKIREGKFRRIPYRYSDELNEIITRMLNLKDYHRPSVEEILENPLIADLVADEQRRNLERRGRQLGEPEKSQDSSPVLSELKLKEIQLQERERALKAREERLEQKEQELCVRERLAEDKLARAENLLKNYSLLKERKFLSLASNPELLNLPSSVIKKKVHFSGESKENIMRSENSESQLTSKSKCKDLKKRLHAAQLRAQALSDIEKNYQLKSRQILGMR

[7] = target: Proto-oncogene tyrosine-protein kinase Src (Homo sapiens, UniProt P12931)
[8] = target: T5, Tyrosine--tRNA ligase, cytoplasmic (Homo sapiens, UniProt P54577)
T5 sequence (P54577 whole entry): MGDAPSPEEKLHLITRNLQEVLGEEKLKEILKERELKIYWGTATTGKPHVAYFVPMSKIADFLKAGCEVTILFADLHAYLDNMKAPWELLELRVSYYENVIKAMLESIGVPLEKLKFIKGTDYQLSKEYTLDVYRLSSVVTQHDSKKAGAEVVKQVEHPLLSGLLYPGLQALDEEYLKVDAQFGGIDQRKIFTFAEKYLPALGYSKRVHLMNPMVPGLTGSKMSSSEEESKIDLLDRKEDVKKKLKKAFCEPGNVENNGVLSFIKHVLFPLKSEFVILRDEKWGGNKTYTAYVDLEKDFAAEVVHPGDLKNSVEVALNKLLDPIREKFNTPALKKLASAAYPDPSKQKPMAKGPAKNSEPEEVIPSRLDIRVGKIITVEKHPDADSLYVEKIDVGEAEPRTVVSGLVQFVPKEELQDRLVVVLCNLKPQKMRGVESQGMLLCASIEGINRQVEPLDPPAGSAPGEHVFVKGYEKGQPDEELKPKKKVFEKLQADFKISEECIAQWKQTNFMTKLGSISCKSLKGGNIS

[9] = target: T6, Uncharacterized protein FLJ45252 (Homo sapiens, UniProt Q6ZSR9); settings: read-out: Kd apparent; k-562, colo 205, sk-n-be(2) and mv-4-11
T6 sequence (Q6ZSR9 whole entry): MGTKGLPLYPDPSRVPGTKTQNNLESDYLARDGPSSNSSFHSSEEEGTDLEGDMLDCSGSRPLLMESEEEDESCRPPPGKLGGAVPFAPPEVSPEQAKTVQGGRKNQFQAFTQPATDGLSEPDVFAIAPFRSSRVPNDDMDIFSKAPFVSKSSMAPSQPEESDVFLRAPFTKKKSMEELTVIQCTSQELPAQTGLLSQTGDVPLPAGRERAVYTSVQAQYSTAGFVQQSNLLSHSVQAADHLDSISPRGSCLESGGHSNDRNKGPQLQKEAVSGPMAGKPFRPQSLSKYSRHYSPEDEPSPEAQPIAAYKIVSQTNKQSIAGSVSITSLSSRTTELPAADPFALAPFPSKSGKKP
Also: in the data inactive means no Kd found up to 30 µM.

Sequence of Calcium/calmodulin-dependent protein kinase kinase 2 (Q96RR4 whole entry): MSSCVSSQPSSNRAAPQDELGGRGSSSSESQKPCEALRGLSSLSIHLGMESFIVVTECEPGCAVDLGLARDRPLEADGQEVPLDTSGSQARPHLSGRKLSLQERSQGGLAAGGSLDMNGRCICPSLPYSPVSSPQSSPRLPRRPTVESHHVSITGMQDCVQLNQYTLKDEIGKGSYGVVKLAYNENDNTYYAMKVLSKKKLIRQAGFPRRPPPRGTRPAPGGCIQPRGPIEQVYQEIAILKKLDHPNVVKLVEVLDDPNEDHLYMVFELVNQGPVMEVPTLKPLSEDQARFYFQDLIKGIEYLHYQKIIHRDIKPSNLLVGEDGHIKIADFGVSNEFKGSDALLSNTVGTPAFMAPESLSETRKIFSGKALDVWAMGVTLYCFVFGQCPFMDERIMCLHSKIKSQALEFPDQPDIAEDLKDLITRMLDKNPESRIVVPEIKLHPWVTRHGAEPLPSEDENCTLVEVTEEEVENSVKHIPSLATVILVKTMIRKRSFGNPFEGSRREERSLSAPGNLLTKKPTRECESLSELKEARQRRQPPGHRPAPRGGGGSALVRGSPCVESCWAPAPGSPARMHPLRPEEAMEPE
Sequence of Proto-oncogene tyrosine-protein kinase Src (P12931 2-536 limits assumed): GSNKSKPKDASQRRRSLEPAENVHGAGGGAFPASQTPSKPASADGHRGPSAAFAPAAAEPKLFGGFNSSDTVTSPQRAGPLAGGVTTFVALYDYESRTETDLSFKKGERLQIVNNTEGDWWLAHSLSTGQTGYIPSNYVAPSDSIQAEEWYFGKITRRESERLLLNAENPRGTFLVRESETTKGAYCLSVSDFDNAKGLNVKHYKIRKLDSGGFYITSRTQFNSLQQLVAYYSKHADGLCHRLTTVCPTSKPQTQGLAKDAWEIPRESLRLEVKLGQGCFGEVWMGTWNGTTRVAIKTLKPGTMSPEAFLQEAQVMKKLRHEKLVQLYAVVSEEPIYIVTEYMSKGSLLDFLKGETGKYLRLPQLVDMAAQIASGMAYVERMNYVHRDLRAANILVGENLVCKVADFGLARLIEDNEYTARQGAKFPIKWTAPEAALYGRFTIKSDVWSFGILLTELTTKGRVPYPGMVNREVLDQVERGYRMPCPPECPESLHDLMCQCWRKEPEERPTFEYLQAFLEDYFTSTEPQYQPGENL
Sequence of Cyclin-dependent kinase 7 (P50613 whole entry): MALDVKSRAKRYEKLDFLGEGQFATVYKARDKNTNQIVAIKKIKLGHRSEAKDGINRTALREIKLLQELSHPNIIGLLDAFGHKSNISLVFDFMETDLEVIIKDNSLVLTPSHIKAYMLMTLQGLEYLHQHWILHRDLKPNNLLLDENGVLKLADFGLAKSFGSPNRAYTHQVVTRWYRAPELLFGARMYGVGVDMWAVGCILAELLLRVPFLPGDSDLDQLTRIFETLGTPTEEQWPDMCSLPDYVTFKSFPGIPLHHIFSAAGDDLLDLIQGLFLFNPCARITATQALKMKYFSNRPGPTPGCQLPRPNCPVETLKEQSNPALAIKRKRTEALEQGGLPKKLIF

Row | Kd [1] | Kd [2] | Kd [3] | Kd [4] | Kd [5] | Kd (Midasin) | Kd [6] | Kd [7] | Kd [8] | Kd [9] | SMILES
1 | > 30 µM (inactive) | > 30 µM (inactive) | > 30 µM (inactive) | > 30 µM (inactive) | > 30 µM (inactive) | > 30 µM (inactive) | > 30 µM (inactive) | > 30 µM (inactive) | > 30 µM (inactive) | > 30 µM (inactive) | N[C@@H]1CCCN(c2c(/C=C3\SC(=O)NC3=O)cccc2-c2ccccc2)C1
2 | > 30 µM (inactive) | > 30 µM (inactive) | > 30 µM (inactive) | > 30 µM (inactive) | > 30 µM (inactive) | > 30 µM (inactive) | > 30 µM (inactive) | > 30 µM (inactive) | > 30 µM (inactive) | > 30 µM (inactive) | Cc1ccc(S(=O)(=O)Nc2nc3ccccc3nc2Nc2ccc3nsnc3c2)cc1
3 | > 30 µM (inactive) | > 30 µM (inactive) | > 30 µM (inactive) | > 30 µM (inactive) | > 30 µM (inactive) | > 30 µM (inactive) | > 30 µM (inactive) | > 30 µM (inactive) | > 30 µM (inactive) | > 30 µM (inactive) | CCN1CCN(Cc2ccc(-c3cc4c(N[C@H](C)c5ccccc5)ncnc4[nH]3)cc2)CC1 [AEE-788]
4 | > 30 µM (inactive) | > 30 µM (inactive) | > 30 µM (inactive) | > 30 µM (inactive) | > 30 µM (inactive) | > 30 µM (inactive) | > 30 µM (inactive) | > 30 µM (inactive) | > 30 µM (inactive) | > 30 µM (inactive) | Cn1ncc(Cl)c1-c1cc(C(=O)N[C@H](CN)Cc2cccc(F)c2)sc1Cl [AFURESERTIB]
5 | > 30 µM (inactive) | 9.13 µM (active) | > 30 µM (inactive) | > 30 µM (inactive) | > 30 µM (inactive) | > 30 µM (inactive) | > 30 µM (inactive) | > 30 µM (inactive) | > 30 µM (inactive) | 0.822 µM (active) | COc1cc(N2CCC(N3CCN(C)CC3)CC2)ccc1Nc1ncnc(Nc2ccccc2S(=O)(=O)C(C)C)n1 [ASP-3026]
6 | > 30 µM (inactive) | > 30 µM (inactive) | > 30 µM (inactive) | > 30 µM (inactive) | > 30 µM (inactive) | > 30 µM (inactive) | > 30 µM (inactive) | > 30 µM (inactive) | > 30 µM (inactive) | > 30 µM (inactive) | CNS(=O)(=O)Nc1nccc(Cc2c(C)c3ccc(Oc4ncccn4)cc3oc2=O)c1F [AVUTOMETINIB]
7 | > 30 µM (inactive) | > 30 µM (inactive) | > 30 µM (inactive) | > 30 µM (inactive) | > 30 µM (inactive) | > 30 µM (inactive) | > 30 µM (inactive) | > 30 µM (inactive) | > 30 µM (inactive) | > 30 µM (inactive) | COc1cc(CCc2cc(NC(=O)c3ccc(N4C[C@@H](C)N[C@@H](C)C4)cc3)n[nH]2)cc(OC)c1 [AZD-4547]
8 | > 30 µM (inactive) | > 30 µM (inactive) | > 30 µM (inactive) | > 30 µM (inactive) | > 30 µM (inactive) | – | > 30 µM (inactive) | > 30 µM (inactive) | > 30 µM (inactive) | 0.078 µM (active) | O=C1NC(=O)/C(=C/c2ccc3nccc(-c4ccncc4)c3c2)S1 [GSK-1059615]
9 | > 30 µM (inactive) | > 30 µM (inactive) | > 30 µM (inactive) | > 30 µM (inactive) | > 30 µM (inactive) | > 30 µM (inactive) | > 30 µM (inactive) | > 30 µM (inactive) | > 30 µM (inactive) | – | CC[C@H](Nc1ncnc2[nH]cnc12)c1nc2cccc(F)c2c(=O)n1-c1ccccc1 [IDELALISIB]
10 | > 30 µM (inactive) | > 30 µM (inactive) | > 30 µM (inactive) | > 30 µM (inactive) | > 30 µM (inactive) | > 30 µM (inactive) | > 30 µM (inactive) | > 30 µM (inactive) | > 30 µM (inactive) | – | CNC(=O)c1cc(Oc2ccc(NC(=O)Nc3ccc(Cl)c(C(F)(F)F)c3)c(F)c2)ccn1 [REGORAFENIB]
11 | > 30 µM (inactive) | 0.195 µM (active) | > 30 µM (inactive) | > 30 µM (inactive) | > 30 µM (inactive) | > 30 µM (inactive) | > 30 µM (inactive) | > 30 µM (inactive) | > 30 µM (inactive) | – | CC[C@@H]1C(=O)N(C)c2cnc(Nc3ccc(C(=O)N[C@H]4CC[C@H](N5CCN(CC6CC6)CC5)CC4)cc3OC)nc2N1C(C)C [VOLASERTIB]

Row | SMILES | Kd [1] | Kd [2] | Kd [3] | Kd [4] | Kd [5] | Kd (Midasin) | Kd [6] | Kd [7] | Kd [8] | Kd [9]
12 | CN1CC[C@@H](c2c(O)cc(O)c3c(=O)cc(-c4ccccc4Cl)oc23)[C@@H]1CO | > 30 µM (inactive) | > 30 µM (inactive) | > 30 µM (inactive) | > 30 µM (inactive) | > 30 µM (inactive) | > 30 µM (inactive) | > 30 µM (inactive) | > 30 µM (inactive) | > 30 µM (inactive) | > 30 µM (inactive)
13 | Cc1cc(-c2cc(O)ccc2Cl)cc2nnc(Nc3ccc(OCCN4CCCC4)cc3)nc12 | > 30 µM (inactive) | > 30 µM (inactive) | > 30 µM (inactive) | > 30 µM (inactive) | > 30 µM (inactive) | > 30 µM (inactive) | > 30 µM (inactive) | 0.001 µM (active) | > 30 µM (inactive) | > 30 µM (inactive)
14 | COC(=O)[C@@]1(O)C[C@H]2O[C@]1(C)n1c3ccccc3c3c4c(c5c6ccccc6n2c5c31)C(=O)NC4 [K-252A] | 6.09 µM (active) | 2.28 µM (active) | > 30 µM (inactive) | > 30 µM (inactive) | – | > 30 µM (inactive) | > 30 µM (inactive) | > 30 µM (inactive) | > 30 µM (inactive) | 0.021 µM (active)
